Source: publication PMC9848300, “Discovery of novel enasidenib analogues targeting inhibition of mutant isocitrate dehydrogenase 2 as antileukaemic agents” (Journal of Enzyme Inhibition and Medicinal Chemistry, 2023)

Experiments:
[1] = system: MDA-MB-468; assay: NCI 60 antitumor screening (single dose / five doses); assay type: cell-based; conditions: Homo sapiens; for inhibition at 10 µM: MDA-MB-468 (breast cancer), single dose 10 μM, read-out: Growth inhibition percentage (GI %)
[2] = system: HCT-15; assay: as above; assay type: cell-based; conditions: Homo sapiens; for inhibition at 10 µM: HCT-15 (colon cancer), single dose 10 μM, read-out: Growth inhibition percentage (GI %)
[3] = system: BT-549; assay: as above; assay type: cell-based; conditions: Homo sapiens; for inhibition at 10 µM: BT-549 (breast cancer), single dose 10 μM, read-out: Growth inhibition percentage (GI %)
[4] = system: MDA-MB-231/ATCC; assay: as above; assay type: cell-based; conditions: Homo sapiens; for inhibition at 10 µM: MDA-MB-231/ATCC (breast cancer), single dose 10 μM, read-out: Growth inhibition percentage (GI %)
[5] = system: UO-31; assay: as above; assay type: cell-based; conditions: Homo sapiens; for inhibition at 10 µM: UO-31 (renal cancer), single dose 10 μM, read-out: Growth inhibition percentage (GI %)
[6] = system: SK-MEL-5; assay: as above; assay type: cell-based; conditions: Homo sapiens; for inhibition at 10 µM: SK-MEL-5 (melanoma), single dose 10 μM, read-out: Growth inhibition percentage (GI %)
[7] = system: RXF 393; assay: as above; assay type: cell-based; conditions: Homo sapiens; for inhibition at 10 µM: RXF 393 (renal cancer), single dose 10 μM, read-out: Growth inhibition percentage (GI %)
[8] = system: LOX IMVI; assay: as above; assay type: cell-based; conditions: Homo sapiens; for inhibition at 10 µM: LOX IMVI (melanoma), single dose 10 μM, read-out: Growth inhibition percentage (GI %)
[9] = system: OVCAR-8; assay: NCI 60 antitumor screening (single dose); assay type: cell-based; conditions: Homo sapiens; OVCAR-8 (ovarian cancer), single dose 10 μM; read-out: Growth inhibition percentage (GI %)
Method in brief: (§1)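 Values are GI% (100 − G%) from the NCI 60-line single-dose screen, compound at 10 μM.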

[10] = system: NCI-H460; assay: NCI 60 antitumor screening (single dose); assay type: cell-based; conditions: Homo sapiens; NCI-H460 (non-small cell lung cancer), single dose 10 μM; read-out: Growth inhibition percentage (GI %)
Method in brief: (§2)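 Under the NCI Drug Evaluation Branch protocol, each compound is screened at one 10 μM concentration on the 60-line human tumour panel. Growth of treated cells is expressed as G%, and inhibition is reported as 100 − G%.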

[11] = system: PC-3; assay: NCI 60 antitumor screening (single dose); assay type: cell-based; conditions: Homo sapiens; PC-3 (prostate cancer), single dose 10 μM; read-out: Growth inhibition percentage (GI %)
Method in brief: as §1

[12] = system: HOP-62; assay: NCI 60 antitumor screening (single dose); assay type: cell-based; conditions: Homo sapiens; HOP-62 (non-small cell lung cancer), single dose 10 μM; read-out: Growth inhibition percentage (GI %)
Method in brief: as §2

[13] = system: TK-10; assay: NCI 60 antitumor screening (single dose); assay type: cell-based; conditions: Homo sapiens; TK-10 (renal cancer), single dose 10 μM; read-out: Growth inhibition percentage (GI %)
Method in brief: as §1

[14] = system: HCC-2998; assay: NCI 60 antitumor screening (single dose); assay type: cell-based; conditions: Homo sapiens; HCC-2998 (colon cancer), single dose 10 μM; read-out: Growth inhibition percentage (GI %)
Method in brief: as §2

[15] = system: SF-295; assay: NCI 60 antitumor screening (single dose / five doses); assay type: cell-based; conditions: Homo sapiens; for inhibition at 10 µM: SF-295 (CNS cancer), single dose 10 μM, read-out: Growth inhibition percentage (GI %)
[16] = system: MOLT-4; assay: as above; assay type: cell-based; conditions: Homo sapiens; for inhibition at 10 µM: MOLT-4 (leukaemia), single dose 10 μM, read-out: Growth inhibition percentage (GI %)
[17] = system: K-562; assay: as above; assay type: cell-based; conditions: Homo sapiens, K562; for inhibition at 10 µM: K-562 (leukaemia), single dose 10 μM, read-out: Growth inhibition percentage (GI %)
[18] = system: HT29; assay: as above; assay type: cell-based, human; conditions: Homo sapiens; for inhibition at 10 µM: HT-29, HT29 (colon cancer), single dose 10 μM, read-out: Growth inhibition percentage (GI %)
[19] = system: SW-620; assay: as above; assay type: cell-based, human; conditions: Homo sapiens; for inhibition at 10 µM: SW-620 (colon cancer), single dose 10 μM, read-out: Growth inhibition percentage (GI %)
[20] = system: ACHN; assay: as above; assay type: cell-based; conditions: Homo sapiens; for inhibition at 10 µM: ACHN (renal cancer), single dose 10 μM, read-out: Growth inhibition percentage (GI %)
[21] = system: RPMI-8226; assay: as above; assay type: cell-based; conditions: Homo sapiens; for inhibition at 10 µM: RPMI-8226 (leukaemia), single dose 10 μM, read-out: Growth inhibition percentage (GI %)
[22] = system: UACC-62; assay: as above; assay type: cell-based; conditions: Homo sapiens; for inhibition at 10 µM: UACC-62 (melanoma), single dose 10 μM, read-out: Growth inhibition percentage (GI %)
[23] = system: 786-0; assay: as above; assay type: cell-based; conditions: Homo sapiens; for inhibition at 10 µM: 786-0, 786-0 (renal cancer), single dose 10 μM, read-out: Growth inhibition percentage (GI %)
[24] = system: HL-60(TB); assay: as above; assay type: cell-based; conditions: Homo sapiens; for inhibition at 10 µM: HL-60(TB) (leukaemia), single dose 10 μM, read-out: Growth inhibition percentage (GI %)
[25] = system: EKVX; assay: as above; assay type: cell-based; conditions: Homo sapiens; for inhibition at 10 µM: EKVX (non-small cell lung cancer), single dose 10 μM, read-out: Growth inhibition percentage (GI %)
[26] = system: IGROV1; assay: as above; assay type: cell-based; conditions: Homo sapiens, IGROV-1; for inhibition at 10 µM: IGROV1 (ovarian cancer), single dose 10 μM, read-out: Growth inhibition percentage (GI %)
[27] = system: UACC-257; assay: as above; assay type: cell-based; conditions: Homo sapiens; for inhibition at 10 µM: UACC-257 (melanoma), single dose 10 μM, read-out: Growth inhibition percentage (GI %)
[28] = system: COLO 205; assay: as above; assay type: cell-based; conditions: Homo sapiens; for inhibition at 10 µM: COLO 205 (colon cancer), single dose 10 μM, read-out: Growth inhibition percentage (GI %)

Fc1cccc(Cl)c1/C=N/Nc1nc(N/N=C/c2c(F)cccc2Cl)nc(N2CCOCC2)n1 [compound 6l, 2,4-Bis[(E)-2-[(2-Chloro-6-fluorophenyl)methylidene]hydrazin-1-yl]-6-(morpholin-4-yl)-1,3,5-triazine]
inhibition at 10 µM [1]: 24.6% | inhibition at 10 µM [2]: 22.1% | inhibition at 10 µM [3]: -1.45% | inhibition at 10 µM [4]: 10.7% | inhibition at 10 µM [5]: 33.5% | inhibition at 10 µM [6]: 44.9% | inhibition at 10 µM [7]: 17.8% | inhibition at 10 µM [8]: 5.3% | inhibition at 10 µM [9]: 15.5% | inhibition at 10 µM [10]: 23.1% | inhibition at 10 µM [11]: 19.3% | inhibition at 10 µM [12]: 6.23% | inhibition at 10 µM [13]: -16.5% | inhibition at 10 µM [14]: 5.25% | inhibition at 10 µM [15]: 49.5% | inhibition at 10 µM [16]: 18.2% | inhibition at 10 µM [17]: 43% | inhibition at 10 µM [18]: 30.6% | inhibition at 10 µM [19]: 9.73% | inhibition at 10 µM [20]: 7.67% | inhibition at 10 µM [21]: 41.1% | inhibition at 10 µM [22]: 19.8% | inhibition at 10 µM [23]: 3.32% | inhibition at 10 µM [24]: 26.1% | inhibition at 10 µM [25]: 45.5% | inhibition at 10 µM [26]: 41.4% | inhibition at 10 µM [27]: 17% | inhibition at 10 µM [28]: 29.6%

CN(C)c1ccc(/C=N/Nc2nc(N/N=C/c3ccc(N(C)C)cc3)nc(N3CCCCC3)n2)cc1 [compound 7g, 4-[(1e)-(2-{4-[(E)-2-{[4-(dimethylamino)phenyl]methylidene}chydrazin-1-yl]-6-(piperidin-1-yl)-1,3,5-triazin-2-yl}hydrazin-1-ylidene)methyl]-N,N-dimethylaniline]
inhibition at 10 µM [1]: 63.7% | GI50 ([1]; MDA-MB-468, five doses (0.01–100 μM), read-out: GI50): 1.64 µM | inhibition at 10 µM [2]: 99.9% | GI50 ([2]; HCT-15, five doses (0.01–100 μM), read-out: GI50): 1.87 µM | inhibition at 10 µM [3]: -10.6% | GI50 ([3]; BT-549, five doses (0.01–100 μM), read-out: GI50): 1.55 µM | GI50 ([4]; MDA-MB-231/ ATCC, five doses (0.01–100 μM), read-out: GI50): 1.8 µM | inhibition at 10 µM [4]: 31.4% | inhibition at 10 µM [5]: 19.7% | GI50 ([5]; UO-31, five doses (0.01–100 μM), read-out: GI50): 1.72 µM | inhibition at 10 µM [6]: 13.3% | GI50 ([6]; SK-MEL-5, five doses (0.01–100 μM), read-out: GI50): 1.73 µM | inhibition at 10 µM [7]: 6.71% | GI50 ([7]; RXF 393, five doses (0.01–100 μM), read-out: GI50): 2.12 µM | inhibition at 10 µM [8]: 173% | GI50 ([8]; LOX IMVI, five doses (0.01–100 μM), read-out: GI50): 1.61 µM | inhibition at 10 µM [9]: 43.4% | inhibition at 10 µM [10]: 29.1% | inhibition at 10 µM [11]: 15.2% | inhibition at 10 µM [12]: 18.2% | inhibition at 10 µM [13]: -18.4% | inhibition at 10 µM [14]: -3.1% | inhibition at 10 µM [15]: -6.74% | GI50 ([15]; SF-295, five doses (0.01–100 μM), read-out: GI50): 1.96 µM | inhibition at 10 µM [16]: 88% | GI50 ([16]; MOLT-4, five doses (0.01–100 μM), read-out: GI50): 2.87 µM | inhibition at 10 µM [17]: 96.9% | GI50 ([17]; K-562, five doses (0.01–100 μM), read-out: GI50): 0.89 µM | GI50 ([18]; HT-29, HT29, five doses (0.01–100 μM), read-out: GI50): 1.76 µM | inhibition at 10 µM [18]: 105% | GI50 ([19]; SW-620, SW-620, five doses (0.01–100 μM), read-out: GI50): 1.89 µM | inhibition at 10 µM [19]: 35.8% | inhibition at 10 µM [20]: 67.6% | GI50 ([20]; ACHN, five doses (0.01–100 μM), read-out: GI50): 2.68 µM | inhibition at 10 µM [21]: 67.4% | GI50 ([21]; RPMI-8226, five doses (0.01–100 μM), read-out: GI50): 1.92 µM | inhibition at 10 µM [22]: -0.61% | GI50 ([22]; UACC-62, five doses (0.01–100 μM), read-out: GI50): 1.84 µM | inhibition at 10 µM [23]: 11.8% | GI50 ([23]; 786-0, five doses (0.01–100 μM), read-out: GI50): 1.69 µM | inhibition at 10 µM [24]: 138% | GI50 ([24]; HL-60(TB), five doses (0.01–100 μM), read-out: GI50): 2.2 µM | inhibition at 10 µM [25]: 2.99% | GI50 ([25]; EKVX, five doses (0.01–100 μM), read-out: GI50): 3.13 µM | inhibition at 10 µM [26]: 6.23% | GI50 ([26]; IGROV1, five doses (0.01–100 μM), read-out: GI50): 2.96 µM | inhibition at 10 µM [27]: -4.45% | GI50 ([27]; UACC-257, five doses (0.01–100 μM), read-out: GI50): 1.83 µM | inhibition at 10 µM [28]: 16.5% | GI50 ([28]; COLO 205, five doses (0.01–100 μM), read-out: GI50): 1.89 µM
